Experimental findings from US20120053053A1, “PYRIMIDINE DERIVATIVES AND THEIR USE AS HERBICIDES” (SYNGENTA CROP PROTECTION, LLC, priority 2009, published 2012) are described below.

What is called pest or weed control is the degree to which the test organism was suppressed or injured, in per cent. A higher pest or weed control goes with strong suppression.

What all share (assay type): in vivo
The subject of assay [1] is Echinochloa crus-galli (ECHCG). The assay is described as follows: Pre-emergence biological efficacy (percentage damage). Particulars: dose 1,000 g/ha, evaluated after 13 days, 100=total damage, 0=no damage; for pest or weed control at 1000 g/ha: Echinochloa crus-galli, 312 h. The protocol:
(§1) Seeds of Alopecurus myosuroides (ALOMY), Setaria faberi (SETFA), Echinochloa crus-galli (ECHCG), Solanum nigrum (SOLNI), Amaranthus retoflexus (AMARE) and Ipomea hederaceae (IPOHE) were sown in standard soil in pots. After cultivation for one day under controlled conditions in a glasshouse (at 24/16° C., day/night; 14 hours light; 65% humidity), the plants were sprayed with an aqueous spray solution derived from the formulation of the technical active ingredient in acetone/water (50:50) solution containing 0.5% Tween 20 (polyoxyethylene sorbitan monolaurate, CAS RN 9005-64-5) to give a final dose of 250 or 1000 g/ha of test compound. The test plants were then grown under controlled conditions in the glasshouse (at 24/16° C., day/night; 14 hours light; 65% humidity) and watered twice daily. After 13 days the test was evaluated (100=total damage to plant; 0=no damage to plant).

The test system of assay [2] is Alopecurus myosuroides (ALOMY). The description is as above. The following applies: dose 1,000 g/ha, evaluated after 13 days, 100=total damage, 0=no damage; for pest or weed control at 1000 g/ha: Alopecurus myosuroides, 312 h. The protocol:
as §1

The subject of assay [3] is Setaria faberi (SETFA). Described as above. Particulars: dose 1,000 g/ha, evaluated after 13 days, 100=total damage, 0=no damage; for pest or weed control at 1000 g/ha: Setaria faberi, 312 h. The protocol:
as §1

For assay [4], the system named is Solanum nigrum (SOLNI). The description is as above. Particulars: dose 1,000 g/ha, evaluated after 13 days, 100=total damage, 0=no damage; for pest or weed control at 1000 g/ha: Solanum nigrum, 312 h. The method, then: as §1
Assay [5] deals with Ipomea hederaceae (IPOHE). Described as above. The following applies: dose 1,000 g/ha, evaluated after 13 days, 100=total damage, 0=no damage; for pest or weed control at 1000 g/ha: Ipomoea hederacea, 312 h. The method, then:
as §1

Assay [6] relates to Amaranthus retoflexus (AMARE). The assay is described as above. Particulars: dose 1,000 g/ha, evaluated after 13 days, 100=total damage, 0=no damage; for pest or weed control at 1000 g/ha: Amaranthus retroflexus, 312 h. The method, then:
as §1

In assay [7] the test system is Echinochloa crus-galli (ECHCG). The assay is described as follows: Post-emergence biological efficacy (percentage damage). Particulars: Echinochloa crus-galli, 312 h, dose 1,000 g/ha, evaluated after 13 days, 100=total damage, 0=no damage. The protocol:
as §1, with “for 8 days” for “for one day”, “grown on” for “grown”, “in a” for “in the”

Assay [8] deals with Alopecurus myosuroides (ALOMY). Described as above. The following applies: Alopecurus myosuroides, 312 h, dose 1,000 g/ha, evaluated after 13 days, 100=total damage, 0=no damage. The protocol:
as §1, with “for 8 days” for “for one day”, “grown on” for “grown”, “in a” for “in the”

Assay [9] has as its system Setaria faberi (SETFA). The assay is described as above. The following applies: Setaria faberi, 312 h, dose 1,000 g/ha, evaluated after 13 days, 100=total damage, 0=no damage. The protocol:
as §1, with “for 8 days” for “for one day”, “grown on” for “grown”, “in a” for “in the”

For assay [10], the system named is Solanum nigrum (SOLNI). Described as above. The following applies: Solanum nigrum, 312 h, dose 1,000 g/ha, evaluated after 13 days, 100=total damage, 0=no damage. The method, then: as §1, with “for 8 days” for “for one day”, “grown on” for “grown”, “in a” for “in the”
Assay [11] has as its system Ipomea hederaceae (IPOHE). The assay is described as above. Particulars: Ipomoea hederacea, 312 h, dose 1,000 g/ha, evaluated after 13 days, 100=total damage, 0=no damage. The protocol:
as §1, with “for 8 days” for “for one day”, “grown on” for “grown”, “in a” for “in the”

Assay [12] relates to Amaranthus retoflexus (AMARE). Described as above. Particulars: Amaranthus retroflexus, 312 h, dose 1,000 g/ha, evaluated after 13 days, 100=total damage, 0=no damage. The protocol: as §1, with “for 8 days” for “for one day”, “grown on” for “grown”, “in a” for “in the”

As for `C=Cc1c(N)nc(-c2ccc(Cl)c(C(F)(F)F)c2)nc1C(=O)OC` [Compound 14-61, 4-Amino-2-(4-chloro-3-trifluoromethyl-phenyl)-5-ethenyl-6-methoxycarbonyl-pyrimidine], the pest or weed control at 1000 g/ha in assay [1] is 20%; in [2], 10%; with Setaria faberi (SETFA) [3], 10%; in the assay with Solanum nigrum (SOLNI) [4] it was 40%; in assay [5], 10%; in [6], 60%. The pest or weed control at 1000 g/ha in assay [7] is 0%; in [8], 0%; with Setaria faberi (SETFA) [9] it was 0%; in the assay on Solanum nigrum (SOLNI) [10] it was 80%; in assay [11], 40%; in [12], 10%.

As for `C=Cc1c(N)nc(-c2ccc(Cl)c(N(C)C)c2F)nc1C(=O)OCCC` [Compound 33-316], the pest or weed control at 1000 g/ha amounted to 90% in [1]; 60% in [2]; 70% in the assay with Setaria faberi (SETFA) [3]; 80% in the assay on Solanum nigrum (SOLNI) [4]; 10% in assay [5]; 90% in assay [6]. In addition, the pest or weed control at 1000 g/ha worked out at 100% in [7]; 70% in assay [8]; 90% in the assay on Setaria faberi (SETFA) [9]; 90% in the assay with Solanum nigrum (SOLNI) [10]; 40% in assay [11]; 100% in assay [12].

On to `C=C(OCC)c1c(N)nc(-c2ccc(C(F)(F)F)cc2)nc1C(=O)OC` [Compound 31-67, 4-amino-5-(1-ethoxyethenyl)-6-methoxycarbonyl-2-(4-trifluoromethylphenyl)-pyrimidine], for which the pest or weed control at 1000 g/ha (in assay [1]; in assay [2]; in the assay on Setaria faberi (SETFA) [3]; in the assay with Solanum nigrum (SOLNI) [4]; in assay [5]; in assay [6]) was 0% each time. Moreover, the pest or weed control at 1000 g/ha in assay [7] amounted to 0%; in assay [8] it was 0%; with Setaria faberi (SETFA) [9], 0%; in the assay on Solanum nigrum (SOLNI) [10], 80%; in assay [11], 80%; in assay [12], 50%.

`COC(=O)c1nc(C2CC2)nc(N)c1/C=C/C1CC1` [Compound 2-66, 4-Amino-2-cyclopropyl-5-(2-cyclopropyl-ethenyl)-6-methoxycarbonyl-pyrimidine]: the pest or weed control at 1000 g/ha (in assay [1]; in [2]; with Setaria faberi (SETFA) [3]; in the assay with Solanum nigrum (SOLNI) [4]; in [5]; in [7]) was 0% throughout. The pest or weed control at 1000 g/ha turned out to be 0% in assay [8]; 10% with Setaria faberi (SETFA) [9]; 60% in the assay on Solanum nigrum (SOLNI) [10]; 40% in [11]; 50% in [12].

Consider `C=Cc1c(N)nc(-c2cc(F)c(Cl)c(F)c2)nc1C(=O)OC` [Compound 30-61, 4-Amino-2-(4-chloro-3,5-difluorophenyl)-5-ethenyl-6-methoxycarbonyl-pyrimidine], for which the pest or weed control at 1000 g/ha came to 0% in assay [1]; 0% in [2]; 0% with Setaria faberi (SETFA) [3]; 20% in the assay with Solanum nigrum (SOLNI) [4]; 0% in assay [5]; 0% in assay [6]. Besides, the pest or weed control at 1000 g/ha in [7] was 0%; in assay [8], 0%; in the assay with Setaria faberi (SETFA) [9], 0%; in the assay on Solanum nigrum (SOLNI) [10], 80%; in assay [11], 10%; in assay [12] it was 10%.

Turning to `C=CCc1c(N)nc(-c2ccc(C(F)(F)F)cc2)nc1C(=O)OC` [Compound 31-63, 4-Amino-6-methoxycarbonyl-5-(prop-1-en-3-yl)-2-(4-trifluoromethyl-phenyl)-pyrimidine], the pest or weed control at 1000 g/ha (in assay [1]; in [2]; in the assay on Setaria faberi (SETFA) [3]; in the assay with Solanum nigrum (SOLNI) [4]; in assay [5]; in [6]) was 0% each time. In addition, the pest or weed control at 1000 g/ha in assay [7] came to 0%; in assay [8], 0%; with Setaria faberi (SETFA) [9] it was 0%; in the assay with Solanum nigrum (SOLNI) [10] it was 50%; in assay [11], 40%; in assay [12], 40%.

`C=Cc1ccc(-c2nc(N)c(C=C)c(C(=O)OC)n2)c(F)c1N(C)C` [Compound 64-61, 4-amino-2-(3-dimethylamino-4-ethenyl-2-fluorophenyl)-5-ethenyl-6-methoxycarbonylpyrimidine]: the pest or weed control at 1000 g/ha amounted to 10% in [1]; 10% in [2]; 10% with Setaria faberi (SETFA) [3]; 10% in the assay on Solanum nigrum (SOLNI) [4]; 0% in assay [5]; 30% in assay [6]. Moreover, the pest or weed control at 1000 g/ha in assay [7] amounted to 10%; in assay [8], 10%; in the assay with Setaria faberi (SETFA) [9], 30%; in the assay on Solanum nigrum (SOLNI) [10] it was 60%; in assay [11], 10%; in assay [12], 100%.

Turning to `COC(=O)c1nc(-c2ccc(Cl)c(OC)c2F)nc(N)c1C1CC1` [Compound 27-58, 4-Amino-2-(4-chloro-2-fluoro-3-methoxyphenyl)-5-cyclopropyl-6-methoxycarbonyl-pyrimidine], the pest or weed control at 1000 g/ha was determined as 0% in assay [1]; 0% in assay [2]; 0% in the assay on Setaria faberi (SETFA) [3]; 0% in the assay with Solanum nigrum (SOLNI) [4]; 10% in assay [5]; 20% in assay [7]. Moreover, the pest or weed control at 1000 g/ha in assay [8] turned out to be 10%; in the assay with Setaria faberi (SETFA) [9], 40%; with Solanum nigrum (SOLNI) [10], 80%; in [11] it was 60%; in assay [12] it was 90%.

Consider `COC(=O)c1nc(-c2ccc(Cl)cc2)nc(N)c1C` [Compound 5-41], for which the pest or weed control at 1000 g/ha is 30% in [1]; 20% in assay [2]; 30% in the assay with Setaria faberi (SETFA) [3]; 30% with Solanum nigrum (SOLNI) [4]; 10% in assay [5]; 100% in assay [6]. Moreover, the pest or weed control at 1000 g/ha was 20% in assay [7]; 30% in [8]; 30% with Setaria faberi (SETFA) [9]; 70% with Solanum nigrum (SOLNI) [10]; 40% in assay [11]; 100% in assay [12].

`C/C=C/c1c(N)nc(-c2ccc(Cl)c(N(C)C)c2F)nc1C(=O)OC` [33-62 (E)]: in [1], the “Percentage damage ECHCG, pre-emergence” value was 90%. In assay [2], the “Percentage damage ALOMY, pre-emergence” value came out at 70%. Also, in the assay on Setaria faberi (SETFA) [3], the “Percentage damage SETFA, pre-emergence” value stood at 80%. For the same molecule, the “Percentage damage SOLNI, pre-emergence” value in the assay on Solanum nigrum (SOLNI) [4] is on record as 80%. Also, in assay [5], the “Percentage damage IPOHE, pre-emergence” value is 0%. For the same molecule, in assay [6], the “Percentage damage AMARE, pre-emergence” value is on record as 100%.
